One series concerns the target T1, BK channels (Homo sapiens, UniProt Q12791).
T1 construct: expressed in transfected cells; host or cells: Xenopus laevis oocytes
The experiment in a line: BK channel opening activity, two-electrode voltage clamp in Xenopus laevis oocytes. It counts as cell-based. Here is the method: In this example the BK channel opening activity of Compound 1 (i.e. N-(2-Benzo[d]isoxazol-3-yl-acetyl)-methanesulfonamide) is determined using BK channels heterologously expressed in Xenopus laevis oocytes.
The electrical current through the BK channel was measured using conventional two-electrode voltage clamp. BK currents were activated by repeating ramp protocols. In brief, the membrane potential was continuously changed from −120 mV to +120 mV within a 2 s period. The threshold for BK activation is approximately +30 mV under control conditions. Compounds were applied for 100 s during which the ramp protocol was repeated 10 times with 10 s intervals. In between the ramp protocols the membrane potential was clamped at −80 mV. The first three compound applications were control blanks where the current level is allowed to stabilize.
In order to evaluate the ability of the compounds to shift the BK activation curve towards lower membrane potentials, the BK current was transformed into conductance by using Ohm's law g=I/(Ememb−Erev), where g is the conductance, I is the current, Ememb is the membrane potential and Erev is the reversal potential. The extracellular solution for these experiments contained 2.5 mM K+ and the intracellular K+ concentration of an oocyte was estimated to be 100 mM. Under those conditions, Nernst equation predicts a reversal potential of Erev=−93.2 mV. The control conductance level at a membrane potential of +100 mV was calculated, and the compound effect was evaluated as the potential difference, ΔV, to the membrane potential at which the same conductance level was obtained in the presence of compound.
The concentration response curve for this potential difference was fitted to the sigmoidal logistic equation: ΔV=ΔVmax/(1+(EC50/[compound])^n), where ΔVmax represents the maximal left shift of the BK activation curve, EC50 is the concentration causing a half maximal response, and n is the slope coefficient.
Background: In two-electrode clamp one electrode senses voltage and the other passes current.

In general, melting point refers to the temperature of the solid-liquid transition.

pEC50: −log10 of the molar value.

T1 sequence (Q12791 whole entry): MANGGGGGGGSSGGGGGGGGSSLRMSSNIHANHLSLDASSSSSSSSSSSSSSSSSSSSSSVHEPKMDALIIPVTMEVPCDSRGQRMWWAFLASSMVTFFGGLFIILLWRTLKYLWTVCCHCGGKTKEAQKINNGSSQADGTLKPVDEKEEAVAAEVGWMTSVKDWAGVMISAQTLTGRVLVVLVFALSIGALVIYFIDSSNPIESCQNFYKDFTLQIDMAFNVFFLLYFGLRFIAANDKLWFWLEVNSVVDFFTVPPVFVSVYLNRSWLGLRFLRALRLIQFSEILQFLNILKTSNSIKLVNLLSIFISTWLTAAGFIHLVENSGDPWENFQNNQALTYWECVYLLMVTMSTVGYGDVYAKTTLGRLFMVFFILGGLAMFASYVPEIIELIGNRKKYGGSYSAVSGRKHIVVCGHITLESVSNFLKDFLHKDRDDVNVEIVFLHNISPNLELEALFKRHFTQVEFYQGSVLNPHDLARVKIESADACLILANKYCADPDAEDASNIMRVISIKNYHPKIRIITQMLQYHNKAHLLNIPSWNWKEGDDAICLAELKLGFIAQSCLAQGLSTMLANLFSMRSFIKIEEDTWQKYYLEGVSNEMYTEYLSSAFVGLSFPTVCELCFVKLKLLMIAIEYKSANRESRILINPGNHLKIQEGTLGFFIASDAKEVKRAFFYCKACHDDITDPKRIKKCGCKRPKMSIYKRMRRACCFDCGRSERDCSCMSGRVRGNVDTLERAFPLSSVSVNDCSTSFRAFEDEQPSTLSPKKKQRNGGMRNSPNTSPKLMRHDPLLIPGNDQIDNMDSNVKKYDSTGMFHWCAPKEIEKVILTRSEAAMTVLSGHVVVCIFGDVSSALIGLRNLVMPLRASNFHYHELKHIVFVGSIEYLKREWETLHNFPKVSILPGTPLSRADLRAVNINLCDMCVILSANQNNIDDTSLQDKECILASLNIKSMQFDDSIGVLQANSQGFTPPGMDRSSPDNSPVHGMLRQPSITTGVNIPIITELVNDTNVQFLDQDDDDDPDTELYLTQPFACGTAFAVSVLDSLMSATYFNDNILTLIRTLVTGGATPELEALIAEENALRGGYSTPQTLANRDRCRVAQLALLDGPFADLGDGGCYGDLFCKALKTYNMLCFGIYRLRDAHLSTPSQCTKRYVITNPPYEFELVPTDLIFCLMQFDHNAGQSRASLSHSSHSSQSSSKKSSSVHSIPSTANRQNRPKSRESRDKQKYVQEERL

Turning to `CS(=O)(=O)NC(=O)Cc1noc2ccccc12` [Compound 1, N-(2-Benzo[d]isoxazol-3-yl-acetyl)-methanesulfonamide], the melting point is 167 to 171 °C. The “ΔVmax, maximal left-shift of the BK activation curve” value on BK channels (BK channels heterologously expressed in Xenopus laevis oocytes, 0.01-31.6 μM, fitted to sigmoidal logistic equation) was −15 mV. In addition, the pEC50 at BK channels (BK channels heterologously expressed in Xenopus laevis oocytes, 0.01-31.6 μM, ΔV at control conductance level of +100 mV, fitted to sigmoidal logistic equation, read-out: EC50 for the left-shift of the BKCa-activation curve) is 6.52. The “BK current level at depolarizing potentials” value on BK channels (increasing concentrations (0.01-31.6 μM), ramp protocol −120 mV to +120 mV, Xenopus laevis oocytes) was “marked increase in the current level”.

The values are drawn from patent US20100168192A1, “BENZISOXAZOLE DERIVATIVES AS POTASSIUM CHANNEL MODULATORS FOR THE TREATMENT OF E.G. RESPIRATORY DISEASES, EPILEPSY AND CONVULSIONS” (NeuroSearch A/S, priority 2007, published 2010).
